From PubChem BioAssay (NCI)
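Exposure lasted 48 hours, with cells grown in 96-well plates and compounds tested at five concentrations. Abbreviation: GI50, concentration required for 50% inhibition of growth. Definition used: TGI = concentration required for complete inhibition of growth.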

Legend:
Assay in all cases: NCI tumour cell line growth inhibition, 48 h
MDA-MB-435 = system: MDA-MB-435
HCC-2998 colon = system: HCC-2998 colon
HCT-15 colon = system: HCT-15 colon
U251 CNS = system: U251 CNS
OVCAR-3 ovarian = system: OVCAR-3 ovarian
UACC-257 melanoma = system: UACC-257 melanoma
NCI-H522 lung = system: NCI-H522 lung
786-0 renal = system: 786-0 renal
RXF 393 renal = system: RXF 393 renal
NCI-H460 lung = system: NCI-H460 lung
A549 NSCLC = system: A549 NSCLC
SK-MEL-28 melanoma = system: SK-MEL-28 melanoma
NCI-H23 lung = system: NCI-H23 lung
COLO 205 colon = system: COLO 205 colon
K-562 leukemia = system: K-562 leukemia
MOLT-4 leukemia = system: MOLT-4 leukemia
HT29 colon = system: HT29 colon
SK-MEL-5 melanoma = system: SK-MEL-5 melanoma
SN12C renal = system: SN12C renal
NCI/ADR-RES ovarian = system: NCI/ADR-RES ovarian
SK-OV-3 ovarian = system: SK-OV-3 ovarian
M14 melanoma = system: M14 melanoma
TK-10 renal = system: TK-10 renal
HCT-116 colon = system: HCT-116 colon
CAKI-1 renal = system: CAKI-1 renal
SR leukemia = system: SR leukemia
SF-268 CNS = system: SF-268 CNS
BT-549 breast = system: BT-549 breast
HL-60(TB) leukemia = system: HL-60(TB) leukemia

SMILES: Cn1cc(-c2cc(N)n3nc(-c4cn(C)c5ccccc45)cc3n2)c2cc(F)ccc21
- GI50 (MDA-MB-435): 1.78 µM
- TGI (MDA-MB-435): 3.33 µM
- GI50 (HCC-2998 colon): 1.78 µM
- TGI (HCC-2998 colon): 3.32 µM
- GI50 (HCT-15 colon): 1.79 µM
- TGI (HCT-15 colon): 4.02 µM
- GI50 (U251 CNS): 1.82 µM
- TGI (U251 CNS): 3.51 µM
- GI50 (OVCAR-3 ovarian): 2.69 µM
- TGI (OVCAR-3 ovarian): 6.53 µM
- GI50 (UACC-257 melanoma): 1.75 µM
- TGI (UACC-257 melanoma): 3.39 µM
- GI50 (NCI-H522 lung): 1.65 µM
- TGI (NCI-H522 lung): 3.42 µM
- GI50 (786-0 renal): 1.51 µM
- TGI (786-0 renal): 2.92 µM
- GI50 (RXF 393 renal): 1.97 µM
- TGI (RXF 393 renal): 3.72 µM
- GI50 (NCI-H460 lung): 2.02 µM
- TGI (NCI-H460 lung): 4.2 µM
- GI50 (A549 NSCLC): 2.17 µM
- TGI (A549 NSCLC): 6.44 µM
- GI50 (SK-MEL-28 melanoma): 1.78 µM
- TGI (SK-MEL-28 melanoma): 3.44 µM
- GI50 (NCI-H23 lung): 2.08 µM
- TGI (NCI-H23 lung): 4.78 µM
- GI50 (COLO 205 colon): 1.89 µM
- TGI (COLO 205 colon): 3.57 µM
- GI50 (K-562 leukemia): 2.72 µM
- TGI (K-562 leukemia): 7.52 µM
- GI50 (MOLT-4 leukemia): 2.44 µM
- TGI (MOLT-4 leukemia): 7.25 µM
- GI50 (HT29 colon): 1.74 µM
- TGI (HT29 colon): 3.34 µM
- GI50 (SK-MEL-5 melanoma): 1.87 µM
- TGI (SK-MEL-5 melanoma): 3.89 µM
- GI50 (SN12C renal): 1.71 µM
- TGI (SN12C renal): 3.14 µM
- GI50 (NCI/ADR-RES ovarian): 2.41 µM
- TGI (NCI/ADR-RES ovarian): 6.26 µM
- GI50 (SK-OV-3 ovarian): 3.32 µM
- TGI (SK-OV-3 ovarian): 12.5 µM
- GI50 (M14 melanoma): 1.83 µM
- TGI (M14 melanoma): 3.52 µM
- GI50 (TK-10 renal): 2.01 µM
- TGI (TK-10 renal): 8.26 µM
- GI50 (HCT-116 colon): 1.76 µM
- TGI (HCT-116 colon): 3.18 µM
- GI50 (CAKI-1 renal): 1.84 µM
- TGI (CAKI-1 renal): 3.98 µM
- GI50 (SR leukemia): 2.16 µM
- TGI (SR leukemia): 7.54 µM
- GI50 (SF-268 CNS): 3.35 µM
- TGI (SF-268 CNS): 13.4 µM
- GI50 (BT-549 breast): 10.5 µM
- TGI (BT-549 breast): 25.3 µM
- GI50 (HL-60(TB) leukemia): 2.1 µM
- TGI (HL-60(TB) leukemia): 5.11 µM
